Test results reported in patent US6875736B2, “Methods for identifying RNA binding compounds” (priority 1999, dated 2005).
Non-standard residues stand in square brackets, D forms with d. Residues, ends and D or L forms follow the SMILES beside them.

What was measured:
[1] = system: Tat trans-activation (HIV-1 LTR promoter, CAT reporter gene); experiment: Inhibition of Tat trans-activation in HL3T1 cells (CAT reporter); format: cell-based
Procedure: (§1) Inhibition of Tat trans-activation in cellular assays. […] Cells were grown in 2 mL of Dulbecco's modified Eagle medium (DMEM) supplemented with 10% fetal calf serum in 60 mm dishes at 37° C. in 5% CO2 in a tissue culture incubator. Cells were refreshed by 2 mL DMEM before transfection. Transfection was started by dropwise addition of 250 μL 2×Hepes-buffered saline and maintenance at room temperature for 10 minutes. Approximately 10 μg of plasmids (pSV2Tat and pAL) and increasing amounts of tripeptide 1 were transfected in the presence of CaCl2 (final concentration 125 mM) and the cells were incubated for 4 hours at 37° C. in a tissue culture incubator. The medium was then discarded and the cells were subjected to glycerol shock (1.5 mL of 15%) for 45 seconds. Finally, the cells were washed twice with 5 mL phosphate-buffered saline (PBS) and were grown in 3 mL DMEM. DMEM was changed at 24 hours post-transfection, and cells were harvested 48 hours post-transfection. Cells were lysed in reporter lysis buffer (Promega). Aliquots were used for CAT and luciferase assays. Both activities were normalized to protein concentration determined by using a modified Bradford assay (Bio-Rad).
(§2) Inhibition of Tat trans-activation in vivo. […] Luciferase reporter gene provides an internal control.

TAR RNA [2] = experiment: On-bead screening of encoded tripeptide library with disperse red-labeled TAR RNA; format: binding, HIV-1; settings: for Color: bead colour with 250 nM disperse red-labeled TAR RNA, 4° C., red after 2 days, pink-red after 3 further days; for Frequency: number of stained beads decoded with this sequence, three copies of library, bead peptides N-acetylated
Procedure: Screening the library with TAR RNA. Three copies of the tripeptide library on encoded beads, which contain more than 95% of the members of the library, were placed in an eppendoff tube and washed with water (500 μL×5) and TK buffer (50 mM Tris-HCl (pH 7.4), 20 mM KCl, 0.1% Triton X-100) (500 μL×4), which is commonly used for the formation of Tat-TAR complexes in vitro (Churcher et al. (1993) J. Mol. Biol. 230, 90-110). After filtration, the beads were suspended in TK buffer (400 μL) and bovine serum albumin (0.1 mg/mL) at room temperature for 1 hour to reduce nonspecific binding. The aqueous phase was removed, and the beads were washed with TK buffer (500 μL×3). After filtration, the beads were resuspended in […] TK buffer, 2.5 μM of bulge mutant TAR RNA was added, and the suspension was stirred at 4° C. for 1 day. The buffer was removed, the beads were resuspended in […] TK buffer, and 250 nM disperse red-dye-labeled-TAR RNA and 2.5 μM bulge mutant TAR RNA were added. After 2 days of stirring at 4° C., the buffer was removed, and the remaining beads were washed with water (500 μL×3). Two red beads were picked under a microscope and placed in separate capillary tubes. The remaining beads were further incubated with a mixture of disperse-red-dye-labeled TAR RNA and bulge mutant TAR RNA for 3 days, as described above. During the second screening, eight beads turned red. These beads were picked and placed in capillary tubes.
Decoding the structures of RNA-binding ligands. A disperse-red dye labeled encoded bead was placed in a 25 μL micro capillary tube containing dimethylformamide (DMF) (2 μL) and the bead was washed with DMF(5 μL×4). After draining the solvent, the bead was resuspended in 2 μL DMF and the micro capillary tube was centrifuged for 4 min and then flame sealed. Each capillary tube containing a bead was then irradiated with UV radiation at 350 nm for 4 hours and spun for 5 minutes in a centrifuge. The capillary tube was opened and the cleaved tag alcohols were silylated with N, O-bis(trimethylsilyl)acetamide in a micro syringe. The N, O-bis(trimethylsilyl)acetamide derivatives (1 μL) were analyzed using electron capture gas chromatography (“ECGC”). A Hewlett Packard 6890 series Gas Chromatography system, equipped with a micro electron capture detector (μ-ECD) and a HP Chemstation operating system, was used for all decoding analyses. The GC was operated in splitless inlet mode, using helium as the carrier gas. A 35 m×0.2 mm i.d.×0.33 μm film thickness HP-Ultra 1 column was used with a temperature program of 1 min isothermal at 200° C. followed by heating at 10° C./min to 320° C. The μ-ECD make up gas was nitrogen.
On-bead selection of structure-specific TAR RNA binding compounds. To identify tripeptides that bind to TAR RNA, the dye disperse red was covalently attached to TAR RNA, and the labeled RNA was incubated in a suspension of library beads made using the split synthesis method. […] Nevertheless, the dye-TAR RNA conjugate was able to enter the beads and bind in a structure-dependent manner to tripeptides attached thereto. The red color of the dye was clearly evenly distributed throughout the translucent bead. Broken beads were not selected. Peptides specific for portions of TAR RNA other than the bulge region were blocked using a relatively large concentration of an unlabeled bulge mutant TAR RNA. A small amount of detergent and low RNA concentrations (250 nM) also minimized non-specific binding.
Ligand Sequence Analysis. Upon incubating the dye-TAR RNA conjugate with the library, only two beads were stained red. These two beads were separated from the rest of the library, which was allowed to incubate with the dye-TAR RNA conjugate for 3 days at 4° C. […] At the end of the second incubation, only eight additional beads were stained pink-red.

wild-type TAR RNA = experiment: Solid-phase RNA-peptide binding assay (dissociation constant); parameters: species or system HIV-1; settings: for KREL: KD of a basic Tat peptide / KD of inhibitor; for dissociation constant relative to tripeptide ID#1 (times higher): diastereomers of tripeptide ID#1; for Kd: wild-type TAR RNA, TK buffer, overnight at 4° C., four independent experiments
Text: Solid-phase RNA-peptide binding assays. TAR RNA binding compounds found and decoded as described above (shown in Table 1) were synthesized on TENTAGEL S-NH2 (4.6 μmole). All fluorenylmethoxycarbonyl (Fmoc)-protected amino acids were purchased from Bachem (Torrance, Calif.). 1-hydroxybenzotriazole (HOBT) and diisopropylcarbodiimide (DIPCDI) were obtained from Aldrich Chemical Co., Milwaukee, Wis. Piperidine and trifluoroacetic acid were purchased from Applied Biosystems Division, Perkin-Elmer. All ligands were synthesized manually according to standard solid-phase peptide synthesis protocols. Coupling efficiencies of residues at each step were monitored using a standard Kaiser test. Deprotection of tripeptides was carried out in 10% water in trifluoroacetic acid (1 mL) for 16 hours at room temperature. After filtration of solvents, the resin was washed with water (1 mL×4), DMF (1 mL×4), and dichloromethane (1 mL×4), and dried under reduced pressure. Ten beads with attached tripeptides were placed in an Eppendorff tube and washed with TK buffer (200 μL×3). The beads were suspended in TK buffer (300 μL) and incubated with TAR RNA (1.95 μM) overnight at 4° C. The suspension was spun in a centrifuge, and the supernatant containing unbound RNA was transferred to a cuvette for optical density measurements at 260 nm using a Shimadzu UV-1601 spectrometer. Equilibrium concentrations of RNA were determined from these measurements. Given that the initial concentrations of ligand and RNA are known, and assuming simple bimolecular receptor/substrate binding, a dissociation constant (KD) was calculated from known equations in order to determine which test compounds bind TAR RNA most tightly.
To verify that this assay reflected RNA-tripeptide interactions and to determine the affinity of these tripeptides for TAR RNA, the eight tripeptides were resynthesized and their dissociation constants with wild-type TAR RNA were measured. […] To compare the RNA binding affinities of 8 ligands to natural Tat peptide, a Tat-derived peptide (Gly48 to Arg57) containing the RNA-binding region of Tat protein was synthesized (FIG. 2(b)) (SEQ. ID. NO. 2). The dissociation constant of the Tat peptide-RNA complex was determined under the same conditions used for the tripeptide-RNA complexes. […] A relative dissociation constant (KREL) can be calculated as the ratios of the Tat peptide to tripeptide dissociation constants (KD) for TAR RNA. Tripeptide ID #1 binds TAR RNA with affinities higher than the wild-type Tat peptide.

dye-labeled TAR RNA = experiment: Equilibrium interaction of dye-labeled TAR RNA with bead-tethered tripeptide; format: binding, HIV-1; settings: dye-labeled TAR RNA 1 μM, TK buffer, 4° C., 5 hours
Procedure: Second, the equilibrium interaction between dye-labeled TAR RNA and a tripeptide tethered to beads was examined by incubating a suspension of beads containing tripeptide ID#1 in TK buffer (400 μL) with dye-labeled TAR RNA (1 μM) at 4° C. for 5 hours. Beads were stained red upon TAR RNA binding. The interaction between dye-labeled TAR RNA and tripeptide ID #1 is reversible and can be abolished by the addition of unlabeled TAR RNA or tripeptide ID#1 as a competitor. Finally, screening the library with dye-labeled TAR RNA was carried out in the presence of excess unlabeled bulge mutant TAR RNA, inhibiting non-specific TAR RNA-peptide interactions.

luciferase gene = experiment: Luciferase internal control in HL3T1 cells (pAL plasmid); format: cell-based; settings: increasing amounts of ligand
Procedure: as §1, §2

TAR RNA [3] = experiment: NMR (TOCSY/NOESY) of TAR RNA with ligand; format: binding, HIV-1; settings: 1 to 2 mM RNA and ligand, 5 mM phosphate buffer pH 5.5
Procedure: NMR Spectroscopy. NMR experiments were performed to determine the interaction sites of tripeptide ID#1 on TAR RNA. NMR spectra of free TAR RNA and TAR RNA complexed with tripeptide ID#1 were recorded. Due to the spectral overlap, it was impossible to follow all but a few well-isolated resonances by conventional 1-dimensional experiments. Therefore, two-dimensional NOESY and TOCSY experiments were performed. All spectra were recorded on a Bruker AMX-500 NMR spectrometer operating at 500 MHz for ^1H equipped with triple resonance probe and H-broadband inverse detection probes. The 1D and 2D ^1H spectra were recorded at approximately 1 to 2 mM RNA and tripeptide ID#1 concentrations in 5 mM phosphate buffer (pH 5.5), with up to 100 mM NaCl. All other conditions were the same as described earlier by Aboul-ela et al. ((1995) J. Mol. Biol. 253, 313-332.). Complete TAR RNA assignments were obtained. Increasing amounts of tripeptide 1 were added to TAR RNA and the spectral changes were monitored by two-dimensional TOCSY experiments. The TOCSY spectrum contains a region where only pyrimidine H5-H6 resonances are found; this region has a well-dispersed 2D spectrum. Resonances in the free RNA and RNA-ligand complexes were assigned by NOESY experiments. […]

Row | Molecule | inhibitory effect on Tat transactivation ([1]; control ligands) | Color (TAR RNA [2]) | Frequency (TAR RNA [2]) | KREL (wild-type TAR RNA) | dissociation constant relative to tripeptide ID#1 (times higher) (wild-type TAR RNA) | Kd (wild-type TAR RNA) | Tat trans-activation inhibited ([1]; 700 nM, CAT activity) | Cell viability / toxicity to the cells (HL3T1 cells) | bead staining upon dye-labeled TAR RNA binding (dye-labeled TAR RNA) | Transcription of the luciferase gene (luciferase gene) | Kd (wild-type TAR RNA; listed as tripeptide ID#1) | shift of TAR RNA resonances in TOCSY spectra (TAR RNA [3])
1 | N=C(N)NCCC[C@H](N)C(N)=O [L-argininamide, reference compound] | no inhibitory effect | – | – | – | – | – | – | – | – | – | – | –
2 | H2N-(L)Lys-(D)Lys-(D)Asn-OH [ID #2] | – | Pink | 1 | 0.17 | approximately 7 times | 4170 nM | – | – | – | – | – | –
3 | H2N-(L)Arg-(D)Lys-(L)Arg-OH [ID #6] | – | Pink | 1 | 0.83 | – | 878 ± 80 nM | – | – | – | – | – | –
4 | H2N-(L)Lys-(L)Lys-(L)Asn-OH [ID #3] | – | Pink | 2 | 0.23 | approximately 7 times | 3220 nM | – | – | – | – | – | –
5 | H2N-(D)Thr-(D)Lys-(L)Asn-OH [ID #7] | – | Pink | 1 | 1.29 | – | 564 ± 80 nM | – | – | – | – | – | –
6 | NCCCC[C@H](N)C(=O)N[C@H](CCCCN)C(=O)N[C@@H](CC(N)=O)C(=O)O [ID #1, H2N-(L)Lys-(D)Lys-(L)Asn-OH] (H-Lys-[dK]-Asn-OH) | – | Red | 2 | 1.73 | – | 420 ± 44 nM | more than 90% | not toxic | stained red | not affected | 441 nM | Resonances in the bulge region, U23 and C24, were shifted
7 | H2N-(L)Arg-(D)Lys-(L)Asn-OH [ID #4] | – | Pink | 1 | 0.28 | – | 2640 nM | – | – | – | – | – | –
8 | H2N-(L)Arg-(D)Lys-(L)Val-OH [ID #5] | – | Pink | 1 | 0.07 | – | 10400 nM | – | – | – | – | – | –
9 | GRKKRRQRRR [Tat peptide, reference compound] | – | – | – | – | – | 698 nM | – | – | – | – | – | –
10 | H2N-(D)Thr-(D)Lys-(L)Phe-OH [ID #8] | – | Pink | 1 | 0.35 | – | 2090 nM | – | – | – | – | – | –
